In publication PMC5363571 (Oncotarget, 2016):
Structures can show the parent of a compound that is named as a salt.

Each molecule was assayed against USP7 (Homo sapiens, UniProt Q93009) (assay: biochemical). Conditions: read-out: % Inhibition at 50 μM.
Set-up: Ub-AMC hydrolysis by recombinant USP7 (20 nM), 30 min pre-incubation, fluorescence read-out

Sequence of USP7 (Q93009 whole entry): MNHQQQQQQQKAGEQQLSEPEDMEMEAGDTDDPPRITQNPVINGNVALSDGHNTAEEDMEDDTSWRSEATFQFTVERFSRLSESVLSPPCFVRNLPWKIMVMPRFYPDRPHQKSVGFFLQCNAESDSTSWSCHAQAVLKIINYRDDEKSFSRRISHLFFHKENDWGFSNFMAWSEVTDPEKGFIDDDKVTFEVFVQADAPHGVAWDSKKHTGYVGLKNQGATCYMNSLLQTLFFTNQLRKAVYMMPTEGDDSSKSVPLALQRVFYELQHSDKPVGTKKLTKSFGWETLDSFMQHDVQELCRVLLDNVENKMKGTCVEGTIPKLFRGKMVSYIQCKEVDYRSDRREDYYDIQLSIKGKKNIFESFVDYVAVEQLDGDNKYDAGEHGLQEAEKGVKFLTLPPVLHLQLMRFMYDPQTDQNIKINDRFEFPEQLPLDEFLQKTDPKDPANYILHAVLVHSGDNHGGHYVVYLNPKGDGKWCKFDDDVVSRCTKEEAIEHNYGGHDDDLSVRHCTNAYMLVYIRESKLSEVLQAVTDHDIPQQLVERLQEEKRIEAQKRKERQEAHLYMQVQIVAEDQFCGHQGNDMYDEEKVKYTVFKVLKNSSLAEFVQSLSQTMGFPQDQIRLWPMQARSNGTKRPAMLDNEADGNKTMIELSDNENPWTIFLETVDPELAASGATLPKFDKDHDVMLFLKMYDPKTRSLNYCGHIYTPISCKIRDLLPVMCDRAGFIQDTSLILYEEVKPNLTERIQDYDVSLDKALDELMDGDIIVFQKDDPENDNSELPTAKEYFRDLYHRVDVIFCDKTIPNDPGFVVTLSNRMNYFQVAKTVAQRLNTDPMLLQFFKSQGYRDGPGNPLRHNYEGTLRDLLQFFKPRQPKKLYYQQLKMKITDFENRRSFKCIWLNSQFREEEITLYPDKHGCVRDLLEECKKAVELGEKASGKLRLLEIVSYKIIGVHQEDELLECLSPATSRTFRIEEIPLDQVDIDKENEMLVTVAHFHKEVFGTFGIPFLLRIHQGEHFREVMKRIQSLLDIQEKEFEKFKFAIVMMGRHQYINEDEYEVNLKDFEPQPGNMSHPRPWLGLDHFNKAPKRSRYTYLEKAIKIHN

Compound	inhibition at 50 µM [%]
CCN1CCC[C@H]1CNC(=O)c1c(O)c(Cl)cc(Cl)c1OC [Raclopride l-tartrate s(-)]	< 5
COc1cc(NS(=O)(=O)c2ccc(N)cc2)nc(OC)n1 [Sulfadimethoxine]	< 5
O=c1[nH]c2ccccc2n1C1CCN(CCCC(c2ccc(F)cc2)c2ccc(F)cc2)CC1 [Pimozide]	< 5
Nc1ccn([C@@H]2O[C@H](CO)[C@@H](O)[C@@H]2O)c(=O)n1 [Cytarabine]	< 5
N=c1ccn2c(n1)O[C@H]1[C@H](O)[C@@H](CO)O[C@H]12 [Cyclocytidine HCl]	29.5
CN1CCN2c3ccccc3Cc3ccccc3C2C1 (centres unmarked) [Mianserin hcl]	21.3
CC(CCc1ccc(O)cc1)NCCc1ccc(O)c(O)c1 (centres unmarked) [Dobutamine HCl]	< 5
CC(C)COCC(CN(Cc1ccccc1)c1ccccc1)N1CCCC1 (centres unmarked) [Bepridil]	< 5
Cc1cnc(C(=O)NCCc2ccc(S(=O)(=O)NC(=O)NC3CCCCC3)cc2)cn1 [Glipizide]	< 5
O=C(O)Cc1ccccc1Nc1c(Cl)cccc1Cl [Diclofenac, Na]	< 5
C=C1C[C@H]2[C@@H]3C=C(C)C4=CC(=O)CC[C@]4(C)[C@H]3CC[C@]2(C)[C@@]1(OC(C)=O)C(C)=O [Melengestrol acetate]	< 5
Cc1cccc(Nc2ccccc2C(=O)O)c1C [Mefenamic acid]	< 5
CN1CCC(=C2c3ccccc3C=Cc3ccccc32)CC1 [Cyproheptadine]	< 5
C[C@@H]1C(=O)O[C@H]2C[C@@]34[C@H]5C[C@@H](C(C)(C)C)[C@]36[C@@H](OC(=O)[C@@H]6O)O[C@@]4(C(=O)O5)[C@]21O [Ginkgolide a]	< 5
CN1C(C(=O)Nc2ccccn2)=C(O)c2ccccc2S1(=O)=O [Piroxicam]	< 5
NC12CC3CC(CC(C3)C1)C2 [Amantadine HCl]	< 5
Cc1ccc(C(=O)Nc2ccc(S(=O)(=O)O)c3cc(S(=O)(=O)O)cc(S(=O)(=O)O)c23)cc1NC(=O)c1cccc(NC(=O)Nc2cccc(C(=O)Nc3cc(C(=O)Nc4ccc(S(=O)(=O)O)c5cc(S(=O)(=O)O)cc(S(=O)(=O)O)c45)ccc3C)c2)c1 [Suramin sodium]	< 5
C[C@H](CS)C(=O)N1CCC[C@H]1C(=O)O [Captopril]	< 5
CO[C@@H]1[C@H](OC(=O)/C=C/C=C/C=C/C=C/C(=O)O)CC[C@]2(CO2)[C@H]1[C@@]1(C)O[C@@H]1CC=C(C)C [Fumagillin]	< 5
COc1cccc2c1C(=O)c1c(O)c3c(c(O)c1C2=O)C[C@@](O)(C(=O)CO)C[C@@H]3O[C@H]1C[C@H](N)[C@H](O)[C@H](C)O1 [Doxorubicin HCl]	< 5
CC(=O)OCC[N+](C)(C)C [Acetylcholine Cl]	< 5
C[N+](C)(C)CCOC(=O)CCC(=O)OCC[N+](C)(C)C [Succinylcholine]	< 5
CN(CCOc1ccc(NS(C)(=O)=O)cc1)CCc1ccc(NS(C)(=O)=O)cc1 [Dofetilide]	< 5
COc1ccc(CCN(C)CCCC(C#N)(c2ccc(OC)c(OC)c2)C(C)C)cc1OC (centres unmarked) [Verapamil]	< 5

Compound	inhibition at 50 µM [%]
CO[C@@H]1[C@@H](OC(N)=O)[C@@H](O)[C@H](Oc2ccc3c(O)c(NC(=O)c4ccc(O)c(CC=C(C)C)c4)c(=O)oc3c2C)OC1(C)C [Novobiocin Na]	< 5
O=c1[nH]cnc2c1ncn2[C@H]1CC[C@@H](CO)O1 [Didanosine]	< 5
CC(C)(C)C(=O)C(Oc1ccc(Cl)cc1)n1ccnc1 (centres unmarked) [Climbazole]	< 5
CCn1cc(C(=O)O)c(=O)c2cc(F)c(N3CCNC(C)C3)c(F)c21 (centres unmarked) [Lomefloxacin HCl]	8.6
CCCCCN(CCCCC)C(=O)C(CCC(=O)O)NC(=O)c1ccc(Cl)c(Cl)c1 (centres unmarked) [Lorglumide]	< 5
C[C@@H]1CN(c2c(F)c(N)c3c(=O)c(C(=O)O)cn(C4CC4)c3c2F)C[C@H](C)N1 [Sparfloxacin]	< 5
C=CCc1ccccc1OCC(O)CNC(C)C (centres unmarked) [Alprenolol HCl]	< 5
O=C(c1ccc(F)cc1)C1CCN(CCn2c(=O)[nH]c3ccccc3c2=O)CC1 [Ketanserin tartrate]	< 5
CC(C)(Oc1ccc(CCNC(=O)c2ccc(Cl)cc2)cc1)C(=O)O [Bezafibrate]	< 5
Cc1scc2c1N(C(=O)CN1CCN(C)CC1)c1ccccc1NC2=O [Telenzepine 2HCl]	< 5
CCCCc1ncc(/C=C(\Cc2cccs2)C(=O)O)n1Cc1ccc(C(=O)O)cc1 [Eprosartan]	6.2
CCN(CC)CC(=O)Nc1c(C)cccc1C [Lidocaine]	< 5
COc1c(N2C[C@@H]3CCCN[C@@H]3C2)c(F)cc2c(=O)c(C(=O)O)cn(C3CC3)c12 [Moxifloxacin HCl]	< 5
C[C@H]1[C@H](OC(=O)CCC(=O)O)O[C@@H]2O[C@@]3(C)CC[C@H]4[C@H](C)CC[C@@H]1[C@@]24OO3 [Artesunate]	< 5
CCc1nn(CCCN2CCN(c3cccc(Cl)c3)CC2)c(=O)n1CCOc1ccccc1 [Nefazodone]	< 5
CCCC[N+]1(C)[C@@H]2C[C@@H](OC(=O)[C@H](CO)c3ccccc3)C[C@H]1[C@@H]1O[C@@H]12 (some centres unmarked) [Scopolamine n-butylbromide]	< 5
COc1ccc(CN(CCN(C)C)c2ccccn2)cc1 [Mepyramine maleate]	< 5
C[C@]12CC[C@H](O)CC1=CC[C@@H]1[C@@H]2CC[C@]2(C)C(=O)CC[C@@H]12 [Dehydroepiandrosterone]	< 5
CC(=O)NC[C@H]1CN(c2ccc(N3CCOCC3)c(F)c2)C(=O)O1 [Linezolid]	< 5
Cn1c(=O)c2c(ncn2CC2OCCO2)n(C)c1=O [Doxofylline]	< 5
CN[C@@H]1[C@H](O[C@H]2[C@H](O[C@H]3[C@H](O)[C@@H](O)[C@H](N=C(N)N)[C@@H](O)[C@@H]3N=C(N)N)O[C@@H](C)[C@]2(O)C=O)O[C@@H](CO)[C@H](O)[C@H]1O [Streptomycin sulfate]	< 5
Cc1ncc([N+](=O)[O-])n1CC(C)O (centres unmarked) [Secnidazole]	< 5
COc1ncnc(NS(=O)(=O)c2ccc(N)cc2)c1OC [Sulfadoxine]	< 5
COC(=O)CCc1ccc(OCC(O)CNC(C)C)cc1 (centres unmarked) [Esmolol]	< 5

Compound	inhibition at 50 µM [%]
CC(C(=O)O)c1cccc(C(=O)c2ccccc2)c1 (centres unmarked) [Ketoprofen]	< 5
O=C(CCCN1CCC(O)(c2ccc(Cl)cc2)CC1)c1ccc(F)cc1 [Haloperidol HCl]	< 5
CO[C@@]12[C@H](COC(N)=O)C3=C(C(=O)C(C)=C(N)C3=O)N1C[C@@H]1N[C@@H]12 [Mitomycin c]	31.5
O=C(CCCN1CCC(O)(c2cccc(C(F)(F)F)c2)CC1)c1ccc(F)cc1 [Trifluperidol 2HCl]	< 5
CN1C[C@@H](NS(=O)(=O)N(C)C)C[C@@H]2c3cccc4c3c(cn4C)C[C@H]21 [Mesulergine HCl]	< 5
CCC(C)(C)c1ccc(CC(C)CN2C[C@@H](C)O[C@@H](C)C2)cc1 (some centres unmarked) [Amorolfine]	< 5
CC1(C)CC[C@]2(C(=O)O)CCC3=C([C@@H](CCl)C[C@@H]4[C@@]5(C)C[C@H](O)[C@H](O)[C@@](C)(C(=O)O)[C@@H]5CC[C@@]34C)[C@@H]2C1 [Senegenin]	< 5
C[N+](C)(C)CCCCCCCCCC[N+](C)(C)C [Decamethonium 2Br]	< 5
C[C@@H]1O[C@@H](O[C@H]2C[C@@H](O)[C@]3(CO)[C@H]4[C@H](O)C[C@]5(C)[C@@H](C6=CC(=O)OC6)CC[C@]5(O)[C@@H]4CC[C@]3(O)C2)[C@H](O)[C@H](O)[C@H]1O [Ouabain]	< 5
CNC1(C)C2CCC(C2)C1(C)C (centres unmarked) [Mecamylamine HCl]	< 5
COc1cc([C@@H]2c3cc4c(cc3[C@@H](O[C@@H]3O[C@@H]5CO[C@@H](C)O[C@H]5[C@H](O)[C@H]3O)[C@H]3COC(=O)[C@H]23)OCO4)cc(OC)c1O [Etoposide]	< 5
CNC(=C[N+](=O)[O-])NCCSCc1ccc(CN(C)C)o1 [Ranitidine HCl]	< 5
CC(=O)[C@]1(O)Cc2c(O)c3c(c(O)c2[C@@H](O[C@H]2C[C@H](N)[C@H](O)[C@H](C)O2)C1)C(=O)c1ccccc1C3=O [Idarubicin]	< 5
C[C@@H](O[C@H]1OCCN(Cc2n[nH]c(=O)[nH]2)[C@H]1c1ccc(F)cc1)c1cc(C(F)(F)F)cc(C(F)(F)F)c1 [Aprepitant]	< 5
CO[C@H](C(=O)[C@@H](O)[C@@H](C)O)[C@@H]1Cc2cc3cc(O[C@H]4C[C@@H](O[C@@H]5C[C@@H](O)[C@H](O)[C@@H](C)O5)[C@H](O)[C@@H](C)O4)c(C)c(O)c3c(O)c2C(=O)[C@H]1O[C@H]1C[C@@H](O[C@@H]2C[C@@H](O)[C@@H](O[C@@H]3C[C@](C)(O)[C@H](O)[C@@H](C)O3)[C@@H](C)O2)[C@H](O)[C@@H](C)O1 [Plicamycin]	< 5
CC(C)(C)NCC(O)c1cc(Cl)c(N)c(Cl)c1 (centres unmarked) [Clenbuterol]	< 5
C#CCN(C)C(C)Cc1ccccc1 (centres unmarked) [Deprenyl]	< 5
CC1(C)[C@@H](O)CC[C@]2(C)[C@H]3C(=O)C=C4[C@@H]5C[C@@](C)(C(=O)O)CC[C@]5(C)CC[C@@]4(C)[C@]3(C)CC[C@@H]12 [Glycyrrhetic acid]	< 5
CC(C)(C)NCC(O)c1ccccc1Cl (centres unmarked) [Tulobuterol]	16.5
CC(C)NCC(O)c1ccc(NS(C)(=O)=O)cc1 (centres unmarked) [Sotalol HCl]	< 5
CN/C(=N\c1ccc(C2=NNC(=O)CC2C)cc1)NC#N (centres unmarked) [Siguazodan]	< 5
CCCc1nc(C)c2c(=O)nc(-c3cc(S(=O)(=O)N4CCN(CC)CC4)ccc3OCC)[nH]n12 [Vardenafil]	< 5
CC(=O)O[C@@]12CO[C@@H]1C[C@H](O)[C@@]1(C)C(=O)[C@H](O)C3=C(C)[C@@H](OC(=O)[C@H](O)[C@@H](NC(=O)OC(C)(C)C)c4ccccc4)C[C@@](O)([C@@H](OC(=O)c4ccccc4)[C@H]21)C3(C)C [Docetaxil]	< 5
